Experimental data taken from ChEMBL document CHEMBL5344411, “Phenotypic screening-based drug discovery of furan-2-carboxylic acid derivatives for the amelioration of type 2 diabetes mellitus (T2DM)” (Eur J Med Chem, 2023).
The source made the active and inactive calls. No cut-off for these calls is given here.

Experiments:
Hepatocyte [1] = test: Inhibition of gluconeogenesis in Sprague-Dawley rat hepatocytes at 10 uM incubated for 1.5 hrs followed by sodium pyruvate and sodium lactate addition and measured after 4 hrs by colorimetric analysis relative to control; type: functional; conditions: time 5.5 hrs
Hepatocyte [2] = test: Inhibition of gluconeogenesis in Sprague-Dawley rat hepatocytes at 0.3 uM incubated for 1.5 hrs followed by sodium pyruvate and sodium lactate addition and measured after 4 hrs by colorimetric analysis relative to control; type: functional; conditions: time 5.5 hrs
[3] = AUC(last) in CD-1 mouse at 1 mg/kg, po by LC-MS/MS analysis; type: ADME, organism-based; parameters: dose 1 mg/kg, route po; conditions: in vivo
[4] = Tmax in CD-1 mouse at 3 mg/kg, po by LC-MS/MS analysis; type: ADME, organism-based; conditions: in vivo
[5] = Observed MRTinfinity in CD-1 mouse at 30 mg/kg, po by LC-MS/MS analysis; type: ADME, organism-based; conditions: in vivo
Mus musculus [6] = test: Antihyperglycemic activity in diabetic ob/ob mouse assessed as reduction in fasting blood glucose level at 5 mg/kg administered via gavage qd for 24 days and measured on day 24; type: functional; conditions: po, 576 h, time 24 day
[7] = Observed MRTinfinity in CD-1 mouse at 3 mg/kg, po by LC-MS/MS analysis; type: ADME, organism-based; conditions: in vivo
[8] = Tmax in CD-1 mouse at 1 mg/kg, po by LC-MS/MS analysis; type: ADME, organism-based; conditions: in vivo
Mus musculus [9] = test: Inhibition of gluconeogenesis in CD-1 mouse assessed as decrease in blood glucose level at 50 mg/kg administered via gavage at 1 hr prior to pyruvate sodium challenge and measured for 2 hrs by pyruvate tolerance test; type: functional, organism-based; conditions: time 3.0 hrs
[10] = Cmax in CD-1 mouse at 30 mg/kg, po by LC-MS/MS analysis; type: ADME, organism-based; parameters: dose 30 mg/kg, route po; conditions: in vivo
[11] = Observed MRTinfinity in CD-1 mouse at 10 mg/kg, po by LC-MS/MS analysis; type: ADME, organism-based; conditions: in vivo
[12] = Toxicity in diabetic ob/ob mouse assessed as effect on body weight at 5 mg/kg administered via gavage qd for 24 days; type: organism-based; conditions: in vivo, po, 576 h, time 24 day
Mus musculus [13] = test: Inhibition of gluconeogenesis in CD-1 mouse assessed as decrease in blood glucose level at 25 mg/kg administered via gavage at 1 hr prior to pyruvate sodium challenge and measured for 2 hrs by pyruvate tolerance test; type: functional, organism-based; conditions: time 3.0 hrs
[14] = Half life in CD-1 mouse at 3 mg/kg, po by LC-MS/MS analysis; type: ADME, organism-based; conditions: in vivo
Mus musculus [15] = test: Antihyperglycemic activity in diabetic ob/ob mouse assessed as reduction in non-fasting blood glucose level at 5 mg/kg administered via gavage qd for 24 days and measured on day 24; type: functional; conditions: po, 576 h, time 24 day
[16] = Tmax in CD-1 mouse at 10 mg/kg, po by LC-MS/MS analysis; type: ADME, organism-based; conditions: in vivo
[17] = AUC(last) in CD-1 mouse at 10 mg/kg, po by LC-MS/MS analysis; type: ADME, organism-based; parameters: dose 10 mg/kg, route po; conditions: in vivo
[18] = Observed AUCinfinity in CD-1 mouse at 1 mg/kg, po by LC-MS/MS analysis; type: ADME, organism-based; parameters: dose 1 mg/kg, route po; conditions: in vivo
[19] = Cmax in CD-1 mouse at 3 mg/kg, po by LC-MS/MS analysis; type: ADME, organism-based; parameters: dose 3 mg/kg, route po; conditions: in vivo
[20] = Oral bioavailability in CD-1 mouse at 30 mg/kg by LC-MS/MS analysis; type: ADME, organism-based; conditions: in vivo
[21] = AUC(last) in CD-1 mouse at 30 mg/kg, po by LC-MS/MS analysis; type: ADME, organism-based; parameters: dose 30 mg/kg, route po; conditions: in vivo
[22] = Observed MRTinfinity in CD-1 mouse at 1 mg/kg, iv by LC-MS/MS analysis; type: ADME, organism-based; conditions: in vivo
[23] = Observed AUCinfinity in CD-1 mouse at 10 mg/kg, po by LC-MS/MS analysis; type: ADME, organism-based; parameters: dose 10 mg/kg, route po; conditions: in vivo
[24] = Tmax in CD-1 mouse at 30 mg/kg, po by LC-MS/MS analysis; type: ADME, organism-based; conditions: in vivo
[25] = Observed MRTinfinity in CD-1 mouse at 1 mg/kg, po by LC-MS/MS analysis; type: ADME, organism-based; conditions: in vivo
[26] = Observed clearance in CD-1 mouse at 1 mg/kg, iv by LC-MS/MS analysis; type: ADME, organism-based; conditions: in vivo
[27] = AUC(last) in CD-1 mouse at 1 mg/kg, iv by LC-MS/MS analysis; type: ADME, organism-based; parameters: dose 1 mg/kg, route iv; conditions: in vivo
[28] = Half life in CD-1 mouse at 1 mg/kg, iv by LC-MS/MS analysis; type: ADME, organism-based; conditions: in vivo
Hepatocyte [29] = test: Inhibition of gluconeogenesis in Sprague-Dawley rat hepatocytes at 3 uM incubated for 1.5 hrs followed by sodium pyruvate and sodium lactate addition and measured after 4 hrs by colorimetric analysis relative to control; type: functional; conditions: time 5.5 hrs
[30] = Half life in CD-1 mouse at 30 mg/kg, po by LC-MS/MS analysis; type: ADME, organism-based; conditions: in vivo
[31] = AUC(last) in CD-1 mouse at 3 mg/kg, po by LC-MS/MS analysis; type: ADME, organism-based; parameters: dose 3 mg/kg, route po; conditions: in vivo
[32] = Toxicity in diabetic ob/ob mouse assessed as effect on daily food intake at 5 mg/kg administered via gavage qd for 24 days; type: organism-based; conditions: in vivo, po, 576 h, time 24 day
[33] = Observed AUCinfinity in CD-1 mouse at 3 mg/kg, po by LC-MS/MS analysis; type: ADME, organism-based; parameters: dose 3 mg/kg, route po; conditions: in vivo
Hepatocyte [34] = test: Inhibition of gluconeogenesis in Sprague-Dawley rat hepatocytes at 1 uM incubated for 1.5 hrs followed by sodium pyruvate and sodium lactate addition and measured after 4 hrs by colorimetric analysis relative to control; type: functional; conditions: time 5.5 hrs
[35] = Oral bioavailability in CD-1 mouse at 3 mg/kg by LC-MS/MS analysis; type: ADME, organism-based; conditions: in vivo
[36] = Observed volume of distribution at steady state in CD-1 mouse at 1 mg/kg, iv by LC-MS/MS analysis; type: ADME, organism-based; conditions: in vivo, read-out: Vdss
[37] = Oral bioavailability in CD-1 mouse at 10 mg/kg by LC-MS/MS analysis; type: ADME, organism-based; conditions: in vivo
[38] = Cmax in CD-1 mouse at 1 mg/kg, po by LC-MS/MS analysis; type: ADME, organism-based; parameters: dose 1 mg/kg, route po; conditions: in vivo
[39] = Half life in CD-1 mouse at 10 mg/kg, po by LC-MS/MS analysis; type: ADME, organism-based; conditions: in vivo
[40] = Observed AUCinfinity in CD-1 mouse at 30 mg/kg, po by LC-MS/MS analysis; type: ADME, organism-based; parameters: dose 30 mg/kg, route po; conditions: in vivo
[41] = Oral bioavailability in CD-1 mouse at 1 mg/kg by LC-MS/MS analysis; type: ADME, organism-based; conditions: in vivo
[42] = Half life in CD-1 mouse at 1 mg/kg, po by LC-MS/MS analysis; type: ADME, organism-based; conditions: in vivo
[43] = Observed AUCinfinity in CD-1 mouse at 1 mg/kg, iv by LC-MS/MS analysis; type: ADME, organism-based; parameters: dose 1 mg/kg, route iv; conditions: in vivo
[44] = Cmax in CD-1 mouse at 10 mg/kg, po by LC-MS/MS analysis; type: ADME, organism-based; parameters: dose 10 mg/kg, route po; conditions: in vivo

CCCc1ccc(OCc2ccc(C(=O)O)o2)c(OCCn2cccc2)c1
fold change (FC) (Hepatocyte [1]): 1.28

CCCc1ccc(OCc2ccc(C(=O)O)o2)c(OCC)c1
fold change (FC) (Hepatocyte [1]): 0.77

C=CCc1ccc(OCc2ccc(C(=O)N(C)C)o2)c(OC)c1
fold change (FC) (Hepatocyte [1]): 0.87

COc1ccccc1OCc1ccc(C(=O)O)o1
fold change (FC) (Hepatocyte [1]): 0.99

COc1cc(CCC(=O)N(C)C)ccc1OCc1ccc(C(=O)O)o1
fold change (FC) (Hepatocyte [1]): 0.9

C=CCc1ccc(OCc2ccc(C(=O)NCc3ccccc3)o2)c(OC)c1
fold change (FC) (Hepatocyte [1]): 0.97

CCCc1ccc(OC)c(OCc2ccc(C(=O)O)o2)c1
fold change (FC) (Hepatocyte [1]): 1.18

COc1cc(CC(=O)N(C)C)ccc1OCc1ccc(C(=O)O)o1
fold change (FC) (Hepatocyte [1]): 1.15

CCCc1cccc(OC)c1OCc1ccc(C(=O)O)o1
fold change (FC) (Hepatocyte [1]): 0.67

CCCc1ccc(OCc2ccc(C(=O)O)o2)cc1OC
fold change (FC) (Hepatocyte [2]): 0.75
AUC(0-t) [3]: 678 ng·h/mL
Tmax [4]: 15 min
MRT inf [5]: 1.7 h
inhibition in vivo at 5 mg/kg (Mus musculus [6]): 40.5%
MRT inf [7]: 2.74 h
Tmax [8]: 15 min
inhibition (Mus musculus [9]): Active
Cmax [10]: 41000 ng/mL
MRT inf [11]: 2.31 h
Activity [12]: Non-Toxic
inhibition (Mus musculus [13]): Active
half-life [14]: 136 min
fold change (FC) (Hepatocyte [1]): 0.03
inhibition in vivo at 5 mg/kg (Mus musculus [15]): 34.9%
Tmax [16]: 15 min
AUC(0-t) [17]: 9590 ng·h/mL
AUC(0-inf) [18]: 709 ng·h/mL
Cmax [19]: 1460 ng/mL
bioavailability [20]: 144%
AUC(0-t) [21]: 52700 ng·h/mL
MRT inf [22]: 47.9 min
AUC(0-inf) [23]: 9620 ng·h/mL
Tmax [24]: 15 min
MRT inf [25]: 2.07 h
clearance [26]: 13.5 mL/min/kg
AUC(0-t) [27]: 1220 ng·h/mL
half-life [28]: 49.7 min
fold change (FC) (Hepatocyte [29]): 0.16
half-life [30]: 189 min
AUC(0-t) [31]: 2430 ng·h/mL
Activity [32]: Non-Toxic
AUC(0-inf) [33]: 2480 ng·h/mL
fold change (FC) (Hepatocyte [34]): 0.64
bioavailability [35]: 66.7%
Vd [36]: 0.65 L/kg
bioavailability [37]: 78.9%
Cmax [38]: 547 ng/mL
half-life [39]: 187 min
AUC(0-inf) [40]: 52800 ng·h/mL
bioavailability [41]: 55.7%
half-life [42]: 108 min
AUC(0-inf) [43]: 1250 ng·h/mL
Cmax [44]: 7580 ng/mL

COc1cc(/C=C/C(=O)N(C)C)ccc1OCc1ccc(C(=O)O)o1
fold change (FC) (Hepatocyte [1]): 0.77

Cc1cc(Br)ccc1OCc1ccc(C(=O)O)o1
fold change (FC) (Hepatocyte [2]): 0.93
inhibition (Mus musculus [9]): Active
fold change (FC) (Hepatocyte [1]): 0.33
fold change (FC) (Hepatocyte [29]): 0.37
fold change (FC) (Hepatocyte [34]): 1.01

C/C=C/c1ccc(OCc2ccc(C(=O)O)o2)c(OC)c1
fold change (FC) (Hepatocyte [1]): 0.93

CCCc1ccc(OCc2ccc(C(=O)O)o2)c(NC(C)=O)c1
fold change (FC) (Hepatocyte [1]): 0.95

CCCc1ccc(OCc2ccc(C(=O)O)o2)c(NC)c1
fold change (FC) (Hepatocyte [2]): 1.02
inhibition (Mus musculus [9]): Active
fold change (FC) (Hepatocyte [1]): 0.41
fold change (FC) (Hepatocyte [29]): 0.56
fold change (FC) (Hepatocyte [34]): 0.81

C=CCc1ccc(OCc2cccc(C(=O)O)c2)c(OC)c1
fold change (FC) (Hepatocyte [1]): 1.06

CCCc1ccc(OCc2ccc(C(=O)O)o2)c(OC(C)C)c1
fold change (FC) (Hepatocyte [1]): 1.25

C=CCc1ccc(OCc2ncc(C(=O)O)s2)c(OC)c1
fold change (FC) (Hepatocyte [1]): 1.33
